Here are results for 23 molecules from patent publication EP4707277A1, “NOVEL HETEROCYCLIC AMINE DERIVATIVES AND PHARMACEUTICAL COMPOSITION COMPRISING SAME” (Daewoong Pharmaceutical Co., Ltd., priority 2023, dated 2024).

Read-outs that look alike come from different tables or passages of the source.

The target in one experiment is T1, ITK (Homo sapiens, UniProt Q08881).
T1 construct: purchased Signalchem I13-11G-10
T1 sequence (Q08881 1-620): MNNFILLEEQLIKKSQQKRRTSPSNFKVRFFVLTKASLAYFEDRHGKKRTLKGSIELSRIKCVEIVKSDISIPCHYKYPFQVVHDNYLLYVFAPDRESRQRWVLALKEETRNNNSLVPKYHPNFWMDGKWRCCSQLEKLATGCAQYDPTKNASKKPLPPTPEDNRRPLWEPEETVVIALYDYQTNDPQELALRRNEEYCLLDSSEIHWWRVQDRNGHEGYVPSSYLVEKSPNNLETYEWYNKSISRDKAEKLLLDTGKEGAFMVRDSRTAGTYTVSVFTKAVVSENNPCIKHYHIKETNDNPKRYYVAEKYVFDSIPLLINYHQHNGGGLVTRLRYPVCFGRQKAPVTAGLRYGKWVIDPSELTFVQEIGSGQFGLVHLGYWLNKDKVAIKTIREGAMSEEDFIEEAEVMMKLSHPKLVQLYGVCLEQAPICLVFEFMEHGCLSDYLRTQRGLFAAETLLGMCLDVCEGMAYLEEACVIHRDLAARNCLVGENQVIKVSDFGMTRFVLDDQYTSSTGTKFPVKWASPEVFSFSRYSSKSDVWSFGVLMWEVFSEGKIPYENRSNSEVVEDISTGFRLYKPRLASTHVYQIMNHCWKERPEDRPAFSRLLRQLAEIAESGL
Briefly: Inhibitory activity against ITK, ADP-Glo Kinase system (Promega). It counts as biochemical. The method, boiled down: (§1)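 IC50 values were fitted from kinase reactions run for 1 h at 30°C with either 1 mM ATP or ATP at Km (10 µM for BTK, 25 µM for ITK). Reactions used 0.2 µg/µl poly(Glu4,Tyr1), recombinant human enzyme (BTK 10 ng, ITK 4 ng per reaction) in Tris pH 7.5 Mn/Mg buffer with 1% DMSO. ADP formed was read by ADP-Glo luminescence.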

The next experiment deals with T2, BTK (Homo sapiens, UniProt Q06187).
T2 construct: purchased Signalchem B10-10H
Briefly: Inhibitory activity against BTK, ADP-Glo Kinase system (Promega). It counts as biochemical. The gist of the method: as §1

[1] abbreviates: 1mM ATP, read-out: ITK IC50(nM) 1mM ATP.
[2] abbreviates: Km ATP (ITK: 25uM), read-out: ITK IC50(nM) Km ATP.
Setting [3] is: 1mM ATP, read-out: BTK IC50(nM) 1mM ATP.
[4] abbreviates: Km ATP (BTK: 10 uM), read-out: BTK IC50(nM) Km ATP.

T2 sequence (Q06187 whole entry): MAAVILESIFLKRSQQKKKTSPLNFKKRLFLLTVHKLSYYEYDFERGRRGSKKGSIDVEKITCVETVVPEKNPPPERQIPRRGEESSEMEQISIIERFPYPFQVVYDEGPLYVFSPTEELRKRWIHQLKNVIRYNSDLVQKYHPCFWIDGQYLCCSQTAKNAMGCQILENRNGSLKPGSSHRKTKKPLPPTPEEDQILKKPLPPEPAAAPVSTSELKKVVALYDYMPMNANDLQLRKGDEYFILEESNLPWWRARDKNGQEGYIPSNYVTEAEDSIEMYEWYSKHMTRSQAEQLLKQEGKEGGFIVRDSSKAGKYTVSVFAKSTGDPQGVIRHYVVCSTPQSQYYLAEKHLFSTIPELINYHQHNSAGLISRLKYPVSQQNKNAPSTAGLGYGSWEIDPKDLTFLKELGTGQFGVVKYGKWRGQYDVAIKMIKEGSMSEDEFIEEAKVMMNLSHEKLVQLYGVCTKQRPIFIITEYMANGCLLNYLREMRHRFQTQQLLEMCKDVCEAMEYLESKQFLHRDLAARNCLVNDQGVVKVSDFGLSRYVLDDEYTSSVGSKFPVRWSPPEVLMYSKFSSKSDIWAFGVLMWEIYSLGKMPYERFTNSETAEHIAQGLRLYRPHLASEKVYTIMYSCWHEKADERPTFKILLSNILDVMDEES

Turning to `C=CC(=O)N1C2C=C(c3nc(Nc4ncc(C)s4)cc4c3ccn4CC(F)F)CC1CC2` (centres unmarked) [Example 34, 1-(3-(1-(2,2-difluoroethyl)-6-((5-methylthiazol-2-yl)amino)-1H-pyrrolo[3,2-c]pyridin-4-yl)-8-azabicyclo[3.2.1]oct-2-en-8-yl)prop-2-en-1-one], the IC50 was 20 to 100 nM on ITK (setting [1]), not above 20 nM on ITK (setting [2]), not above 20 nM on BTK (setting [3]) and not above 20 nM on BTK (setting [4]).

For the molecule `C=CC(=O)N1C[C@H](Oc2nc(Nc3ncc(C)s3)cc3c2ccn3CC(C)C)[C@@H](F)C1` [Example 134, 1-((3S,4S)-3-fluoro-4-((1-isobutyl-6-((5-methylthiazol-2-yl)amino)-1H-pyrrolo[3,2-c]pyridin-4-yl)oxy)pyrrolidin-1-yl)prop-2-en-1-one], the half-inhibitory concentration (IC50) at ITK (setting [1]) and at BTK (setting [3]) was more than 500 nM throughout.

`C=CC(=O)N1CCC2(CCC(Oc3nc(Nc4ncc(C)s4)cc4c3ccn4CC(C)C)C2)C1` (centres unmarked) [Example 204, 1-(7-((1-isobutyl-6-((5-methylthiazol-2-yl)amino)-1H-pyrrolo[3,2-c]pyridin-4-yl)oxy)-2-azaspiro[4.4]nonan-2-yl)prop-2-en-1-one]: the half-inhibitory concentration (IC50) on ITK (setting [1]) and on BTK (setting [3]) was more than 500 nM throughout.

As for `C=CC(=O)N1CC=C(c2nc(Nc3ncc[nH]3)cc3c2ccn3C)CC1` [Example 40, 1-(4-(6-((1H-imidazol-2-yl)amino)-1-methyl-1H-pyrrolo[3,2-c]pyridin-4-yl)-3,6-dihydropyridin-1(2H)-yl)prop-2-en-1-one], the IC50 at ITK (setting [2]) is more than 500 nM; on BTK (setting [4]), 100 to 500 nM.

On to `C=CC(=O)N1C2C=C(c3nc(Nc4ncc(C)s4)cc4c3ccn4CC(C)C)CC1CC2` (centres unmarked) [Example 32, 1-(3-(1-isobutyl-6-((5-methylthiazol-2-yl)amino)-1H-pyrrolo[3,2-c]pyridin-4-yl)-8-azabicyclo[3.2.1]oct-2-en-8-yl)prop-2-en-1-one], for which the IC50 on ITK (setting [1]), at ITK (setting [2]), at BTK (setting [3]) and on BTK (setting [4]) was not above 20 nM in each case.

With `C=CC(=O)N1CC(C)(Oc2nc(Nc3ncc(C)s3)cc3c2ccn3CCC)C1` [Example 176, 1-(3-methyl-3-((6-((5-methylthiazol-2-yl)amino)-1-propyl-1H-pyrrolo[3,2-c]pyridin-4-yl)oxy)azetidin-1-yl)prop-2-en-1-one], the IC50 at ITK (setting [1]) and at BTK (setting [3]) was not above 20 nM in each case.

With `C=CC(=O)Nc1ccc(F)c(-c2nc(Nc3ncc(C)s3)cc3c2ccn3C(C)C)c1` [Example 59, N-(4-fluoro-3-(1-isopropyl-6-((5-methylthiazol-2-yl)amino)-1H-pyrrolo[3,2-c]pyridin-4-yl)phenyl)acrylamide], the half-maximal inhibitory concentration (IC50) on ITK (setting [1]) and on BTK (setting [3]) was not above 20 nM each time.

Consider `C=CC(=O)N1CCC[C@H](Oc2nc(Nc3ncc(C)s3)cc3c2ccn3CC(C)CC)C1` (stereo partly drawn) [Example 172, 1-((3S)-3-((1-(2-methylbutyl)-6-((5-methylthiazol-2-yl)amino)-1H-pyrrolo[3,2-c]pyridin-4-yl)oxy)piperidin-1-yl)prop-2-en-1-one], for which the IC50 on ITK (setting [1]) was 20 to 100 nM; at BTK (setting [3]) it was not above 20 nM.

On to `C=CC(=O)N1C[C@@H](F)[C@H](Oc2nc(Nc3ncc(C)s3)cc3c2ccn3CCC)C1` [Example 161, 1-((3R,4R)-3-fluoro-4-((6-((5-methylthiazol-2-yl)amino)-1-propyl-1H-pyrrolo[3,2-c]pyridin-4-yl)oxy)pyrrolidin-1-yl)prop-2-en-1-one], for which the IC50 on ITK (setting [1]) and at BTK (setting [3]) was not above 20 nM throughout.

Consider `C=CC(=O)N1CC(C)(Oc2nc(Nc3ncc(C)s3)cc3c2ccn3CC2CC2)C1` [Example 167, 1-(3-((1-(cyclopropylmethyl)-6-((5-methylthiazol-2-yl)amino)-1H-pyrrolo[3,2-c]pyridin-4-yl)oxy)-3-methylazetidin-1-yl)prop-2-en-1-one], for which the half-maximal inhibitory concentration (IC50) on ITK (setting [1]) and at BTK (setting [3]) was not above 20 nM each time.

`C=CC(=O)N1CC=C(c2nc(Nc3ncc(C)s3)cc3c2ccn3[C@@H](C)CC)CC1` [Example 13, (S)-1-(4-(1-(sec-butyl)-6-((5-methylthiazol-2-yl)amino)-1H-pyrrolo[3,2-c]pyridin-4-yl)-3,6-dihydropyridin-1(2H)-yl)prop-2-en-1-one]: the half-inhibitory concentration (IC50) on ITK (setting [2]) and at BTK (setting [4]) was not above 20 nM throughout.

With `C=CC(=O)N1CC[C@@H](Oc2nc(Nc3ncc(C)s3)cc3c2ccn3C2CCCC2)C1` [Example 143, (R)-1-(3-((1-cyclopentyl-6-((5-methylthiazol-2-yl)amino)-1H-pyrrolo[3,2-c]pyridin-4-yl)oxy)pyrrolidin-1-yl)prop-2-en-1-one], the half-maximal inhibitory concentration (IC50) on ITK (setting [1]) and at BTK (setting [3]) was more than 500 nM each time.

Regarding `C=CC(=O)N1CC(C)(Oc2nc(Nc3ncc(C)s3)cc3c2ccn3C2CCCC2)C1` [Example 165, 1-(3-((1-cyclopentyl-6-((5-methylthiazol-2-yl)amino)-1H-pyrrolo[3,2-c]pyridin-4-yl)oxy)-3-methylazetidin-1-yl)prop-2-en-1-one], the IC50 at ITK (setting [1]) and at BTK (setting [3]) was not above 20 nM throughout.

With `C=CC(=O)N1CC[C@H](Oc2nc(Nc3ncc(C)s3)cc3c2ccn3CC(C)CC)C1` (stereo partly drawn) [Example 123, 1-((3S)-3-((1-(2-methylbutyl)-6-((5-methylthiazol-2-yl)amino)-1H-pyrrolo[3,2-c]pyridin-4-yl)oxy)pyrrolidin-1-yl)prop-2-en-1-one], the IC50 on ITK (setting [2]) and on BTK (setting [4]) was not above 20 nM throughout.

Regarding `C=CC(=O)N1CCC[C@H]1COc1nc(Nc2ncc(C)s2)cc2c1ccn2C(C)C` [Example 219, (S)-1-(2-(((1-isopropyl-6-((5-methylthiazol-2-yl)amino)-1H-pyrrolo[3,2-c]pyridin-4-yl)oxy)methyl)pyrrolidin-1-yl)prop-2-en-1-one], the results for the IC50 on ITK (setting [1]) and on BTK (setting [3]) were more than 500 nM and 20 to 100 nM, respectively.

For the molecule `C=CC(=O)Nc1cc(-c2nc(Nc3ncc(C)s3)cc3c2ccn3C)ccc1C` [Example 55, N-(2-methyl-5-(1-methyl-6-((5-methylthiazol-2-yl)amino)-1H-pyrrolo[3,2-c]pyridin-4-yl)phenyl)acrylamide], the IC50 at ITK (setting [2]) and at BTK (setting [4]) was not above 20 nM each time.

Turning to `C=CC(=O)N1CC[C@@H](Oc2nc(Nc3ncc(C)s3)cc3c2ccn3C)C1` [Example 156, (R)-1-(3-((1-methyl-6-((5-methylthiazol-2-yl)amino)-1H-pyrrolo[3,2-c]pyridin-4-yl)oxy)pyrrolidin-1-yl)prop-2-en-1-one], the IC50 at ITK (setting [1]) and at BTK (setting [3]) was more than 500 nM throughout.

Take `C=CC(=O)N1CCC[C@H](Oc2nc(Nc3ncc(C)s3)cc3c2ccn3CC2CCCC2)C1` [Example 169, (S)-1-(3-((1-(cyclopentylmethyl)-6-((5-methylthiazol-2-yl)amino)-1H-pyrrolo[3,2-c]pyridin-4-yl)oxy)piperidin-1-yl)prop-2-en-1-one]: the concentration for half-maximal inhibition (IC50) was 20 to 100 nM on ITK (setting [1]) and not above 20 nM on BTK (setting [3]).

`Cc1cnc(Nc2cc3c(ccn3CC(C)C)c(O[C@H]3CCN(C(=O)/C=C/CN(C)C)C3)n2)s1` [Example 227, (S,E)-4-(dimethylamino)-1-(3-((1-isobutyl-6-((5-methylthiazol-2-yl)amino)-1H-pyrrolo[3,2-c]pyridin-4-yl)oxy)pyrrolidin-1-yl)but-2-en-1-one]: the half-maximal inhibitory concentration (IC50) on ITK (setting [1]) and at BTK (setting [3]) was more than 500 nM in each case.

Take `C=CC(=O)N1CCC[C@@H]1COc1nc(Nc2ncc(C)s2)cc2c1ccn2CC(F)F` [Example 210, (R)-1-(2-(((1-(2,2-difluoroethyl)-6-((5-methylthiazol-2-yl)amino)-1H-pyrrolo[3,2-c]pyridin-4-yl)oxy)methyl)pyrrolidin-1-yl)prop-2-en-1-one]: the concentration for half-maximal inhibition (IC50) at ITK (setting [1]) and on BTK (setting [3]) was not above 20 nM in each case.

With `C=CC(=O)Nc1cccc(-c2nc(Nc3ncc(C)s3)cc3c2ccn3C)c1F` [Example 51, N-(2-fluoro-3-(1-methyl-6-((5-methylthiazol-2-yl)amino)-1H-pyrrolo[3,2-c]pyridin-4-yl)phenyl)acrylamide], the IC50 on ITK (setting [2]) and on BTK (setting [4]) was not above 20 nM in each case.

In the case of `C=CC(=O)N1CCC[C@H](Oc2nc(Nc3ncc(C)s3)cc3c2ccn3C(C)C)C1` [Example 84, (S)-1-(3-((1-isopropyl-6-((5-methylthiazol-2-yl)amino)-1H-pyrrolo[3,2-c]pyridin-4-yl)oxy)piperidin-1-yl)prop-2-en-1-one], the 50% inhibitory concentration (IC50) at ITK (setting [1]) was 20 to 100 nM; at BTK (setting [3]) it was not above 20 nM.

Consider `C=CC(=O)N1C[C@@H](F)[C@@H](Oc2nc(Nc3ncc(C)s3)cc3c2ccn3CC(C)C)C1` [Example 135, 1-((3R,4S)-3-fluoro-4-((1-isobutyl-6-((5-methylthiazol-2-yl)amino)-1H-pyrrolo[3,2-c]pyridin-4-yl)oxy)pyrrolidin-1-yl)prop-2-en-1-one], for which the IC50 on ITK (setting [1]) and on BTK (setting [3]) was more than 500 nM throughout.
